Test results reported in patent US11084841B1, “Chitooligosaccharide-N-geraniol derivatives, methods for preparing and application thereof” (Jiangnan University, priority 2020, dated 2021).

Assays:
Staphylococcus aureus = assay: antibacterial activity test, culture plate with antibacterial substance; format: cell-based; settings: 1 mg/ml antibacterial substance, 37° C., 24 hours, versus control plate, FIG. 5
Experimental: (§1) Gram negative and positive bacterium (Escherichia coli and Staphylococcus aureus) are selected for the antibacterial activity test. The bacteria strain was selected to grow in LB culture medium and sub-culture to the second generation in logarithmic phase. The bacterial suspension was diluted to the required concentration (10^5 CFU/ml) with normal saline. Under the aseptic condition, the bacterial solution and antibacterial substance solution (mix 5 μL bacterial solution and 5 mL LB liquid medium containing 1 mg/ml antibacterial substance) were added onto the culture plate and mixed evenly. The control group was the culture plate without antibacterial substance, and then the culture plates were incubated at 37° C. for 24 hours to observe the growth of bacteria.

Escherichia coli = assay: as above; format: cell-based; settings: 1 mg/ml antibacterial substance, 37° C., 24 hours, versus control plate, FIG. 6
Experimental: as §1

Structure (SMILES): CC(C)=CCC/C(C)=C/CO [Ger, (2E)-3,7-dimethylocta-2,6-dien-1-ol]
- inhibition of bacterial growth (Staphylococcus aureus): able to inhibit
- inhibition of bacterial growth (Escherichia coli): able to inhibit
